Measurements as given in US9173892B2, “Acadesine derivatives, products and compositions including same, therapeutic uses thereof, and methods for synthesizing same” (Universite Nice Sophia Antipolis, priority 2011, dated 2015).
Counter-ions that a name gives are not always drawn.

Key:
Format in all cases: cell-based, human
K562 cells [1] = assay: cell viability (XTT) of imatinib-sensitive K562 cells; settings: for viability at 500 µM / IC50 / efficacy in dose-response experiment (number of viable cells): K562; for viability at 500 µM: 0.5 mM, 24 hours, read-out: percentage of viable cells; for viability at 500 µM / IC50: XTT; for IC50: dose-response 5, 10, 25 and 50 μM, 24 or 48 hours, Example 1 (Table 1 codes); for efficacy in dose-response experiment (number of viable cells): 5, 10, 25 and 50 μM, compounds effective at concentrations as low as 5 μM
Procedure: (§1) The K562 leukemic cell line is obtained from the pleural effusion of a patient with CML. This line is a good model for studying this disease. […] The K562 and ImaR cells are cultivated at 37° C. under 5% CO2 in an RPMI 1640 medium containing 5% fetal bovine serum and supplemented with sodium pyruvate and antibiotics (penicillin-streptomycin).
(§2) FIGS. 1 to 4 reflect the study of the cell viability.
(§3) After the addition of XTT reagent, the absorbance is measured at 490 nm.
as §3, §3
After adding XTT reagent, the absorbance is measured at 490 nm.

ImaR cells [2] = assay: cell viability (XTT) of imatinib-resistant ImaR cells; settings: for efficacy in dose-response experiment (number of viable cells): 5, 10, 25 and 50 μM, compounds effective at concentrations as low as 5 μM; for viability at 500 µM / IC50: Homo sapiens, XTT; for viability at 500 µM: 0.5 mM, 24 hours, read-out: percentage of viable cells; for IC50: dose-response 5, 10, 25 and 50 μM, 24 or 48 hours, Example 1 (Table 1 codes)
Procedure: as §1, §2, §3, §3

K562 cells [3] = assay: flow cytometry analysis of the cell cycle, K562 cells; settings: for cells in phase G0/G1 / cells in the subG1 phase: 24 hours, imatinib 3 μM, 112 at 2.5 μM, 15, 23, 49 at 10 μM; for proportion of cells in the G2/M phase: 24 hours, 82, 86, 112 at 2.5 μM, 15, 23, 191, 49 at 10 μM
Procedure: The x-axis of the graph of FIG. 9 corresponds to the quantity of DNA marked with propidium iodide while the y-axis corresponds to the number of cells. […] The nuclei are marked with propidium iodide, then the proportion of cells in the different phases of the cell cycle (subG1, G0/G1, S, G2/M) is determined.

ImaR cells [4] = assay: flow cytometry analysis of the cell cycle, ImaR cells; settings: for cells in phase G0/G1 / cells in the subG1 phase: 24 hours, imatinib 3 μM, 112 at 2.5 μM, 15, 23, 49 at 10 μM; for proportion of cells in the G2/M phase: 24 hours, 82, 86, 112 at 2.5 μM, 15, 23, 191, 49 at 10 μM
Procedure: The x-axis of the graph of FIG. 9 corresponds to the quantity of DNA marked with propidium iodide while the y-axis corresponds to the number of cells. […] The nucleii are marked with propidium iodide, then the proportion of cells in the different phases of the cell cycle (subG1, G0/G1, S, G2/M) is determined.

caspase-9 [5] = assay: caspase-9 activity (Ac-LEHD-AMC) in K562 cells; settings: for caspase-9 activity: K562, 24 hours, imatinib 3 μM, 112 2.5 μM, 15 and 23 10 μM; for pathway relaying the induced apoptosis: conclusion of Example 1, K562 and ImaR cells
Procedure: (§4) The cells are lyzed and the caspase-9 activities are measured using 10 μg of proteins and Ac-LEHD-AMC. The fluorescence emission at 460 nm resulting from the release of AMC is then recorded.

caspase-9 [6] = assay: caspase-9 activity (Ac-LEHD-AMC) in ImaR cells; settings: 24 hours, imatinib 3 μM, 112 2.5 μM, 15 and 23 10 μM
Procedure: as §4

mTOR pathway [7] = assay: western blot of 4E-BP1 phosphorylation (mTOR pathway), K562 cells; settings: 24 hours, imatinib 3 μM, AICAR 1 mM, 82, 112 at 2.5 μM, 15, 23, 191 at 10 μM
Procedure: (§5) The cells are lyzed and 30 μg of proteins are separated by SDS-PAGE (13% polyacrylamide gel) and analyzed by western blot with an antibody specific to the 4E-BP1 protein. The delayed gel migration observed reflects the level of phosphorylation of 4E-BP1.

caspase-3 = caspase-3 activity (Ac-DEVD-AMC) in ImaR cells; settings: 24 hours, imatinib 3 μM, AICAR 1 mM, 112 at 2.5 μM, 15, 23, 49 at 10 μM
Procedure: The cells are lyzed and 10 μg of proteins are placed in the presence of Ac-DEVD-AMC in a 96-well plate. The fluorescence emission at 460 nm resulting from the release of AMC is then recorded.

K562 cells [8] = assay: western blot of apoptosis and autophagy markers, K562 cells; settings: for LC3 cleavage (LC3-I into LC3-II) / PARP cleavage (fragment at 85 kDa) / expression of p62/SQSTM1: K562, 24 hours; for LC3 cleavage (LC3-I into LC3-II) / expression of p62/SQSTM1: AICAR 1 mM; for LC3 cleavage (LC3-I into LC3-II): 82, 86 at 2.5 μM, 15, 23, 191, 49 at 10 μM; for PARP cleavage (fragment at 85 kDa): imatinib 3 μM, 112 at 2.5 μM, 15, 23, 49 at 10 μM; for type of programmed cell death induced: conclusion of Example 1, K562 and ImaR cells; for expression of p62/SQSTM1: 82, 86, 112 at 2.5 μM, 15, 23, 191 at 10 μM
Procedure: (§6) The cells are lyzed and 35 μg of proteins are separated by SDS-PAGE (12 or 14% polyacrylamide gel) and analyzed by western blot with antibodies specific to each of the markers.

ImaR cells [9] = assay: western blot of apoptosis and autophagy markers, ImaR cells; settings: 24 hours; for LC3 cleavage (LC3-I into LC3-II): AICAR 1 mM, 82, 86 at 2.5 μM, 15, 23, 191, 49 at 10 μM; for PARP cleavage (fragment at 85 kDa): imatinib 3 μM, 112 at 2.5 μM, 15, 23, 49 at 10 μM; for expression of p62/SQSTM1: AICAR 1 mM, 82, 86, 112 at 2.5 μM, 15, 23, 191 at 10 μM
Procedure: as §6

cathepsin-B [10] = assay: cathepsin-B activity (z-RR-AMC) in K562 cells; settings: 24 hours, AICAR 1 mM, 82, 112 at 2.5 μM, 15, 23, 191 at 10 μM
Procedure: (§7) The cells are lyzed and 5 μg of proteins are placed in the presence of z-RR-AMC in a 96-well plate. The fluorescence emission at 460 nm resulting from the release of AMC is then recorded.

cathepsin-B [11] = assay: cathepsin-B activity (z-RR-AMC) in ImaR cells; settings: 24 hours, AICAR 1 mM, 82, 112 at 2.5 μM, 15, 23, 191 at 10 μM
Procedure: as §7

mTOR pathway [12] = assay: western blot of 4E-BP1 phosphorylation (mTOR pathway), ImaR cells; settings: 24 hours, imatinib 3 μM, AICAR 1 mM, 82, 112 at 2.5 μM, 15, 23, 191 at 10 μM
Procedure: as §5

Structure (SMILES)	cells in phase G0/G1 (K562 cells [3])	cells in the subG1 phase (K562 cells [3])	cells in phase G0/G1 (ImaR cells [4])	cells in the subG1 phase (ImaR cells [4])	caspase-9 activity (caspase-9 [5])	caspase-9 activity (caspase-9 [6])	phosphorylation of 4E-BP1 (mTOR pathway [7])	viability at 500 µM (K562 cells [1]; Homo sapiens) [%]	IC50 (K562 cells [1]; Homo sapiens) [µM]	efficacy in dose-response experiment (number of viable cells) (K562 cells [1])	efficacy in dose-response experiment (number of viable cells) (ImaR cells [2])	viability at 500 µM (ImaR cells [2]) [%]	IC50 (ImaR cells [2]) [µM]	proportion of cells in the G2/M phase (K562 cells [3])	proportion of cells in the G2/M phase (ImaR cells [4])	LC3 cleavage (LC3-I into LC3-II) (K562 cells [8])	type of programmed cell death induced (K562 cells [8])	LC3 cleavage (LC3-I into LC3-II) (ImaR cells [9])	expression of p62/SQSTM1 (K562 cells [8])	expression of p62/SQSTM1 (ImaR cells [9])	also measured
Cc1ccc(NC(=O)c2ccc(CN3CCN(C)CC3)cc2)cc1Nc1nccc(-c2cccnc2)n1 [imatinib, imatinib mesylate, reference compound]	increase	small fraction of cells is also accumulated	not observed	not observed	strong increase	not the case	totally inhibits	–	–	–	–	–	–	–	–	–	–	–	–	–	cytotoxicity at 1 µM (K562 cells [1]; Homo sapiens, K562, 48 h, read-out: cell viability loss): > 50%; cell viability (ImaR cells [2]; imatinib 1 μM, 48 hours): affected only slightly
CCOC(=O)C#Cc1c(C(=O)OCC)nnn1[C@@H]1O[C@H](COC(C)=O)[C@@H](OC(C)=O)[C@H]1OC(C)=O [Compound 49, 1′-(4-ethoxycarbonyl-5-ethyl propiolate-[1,2,3]-triazol-1-yl)-2′,3′,5′-tri-O-acetyl-β-D-ribofuranose]	reduction	very pronounced accumulation	reduction	very pronounced accumulation	–	–	–	< 10	~10	particularly effective	particularly effective	< 10	~10	increase	increase	cleaved	combination of the two types of mechanisms	cleaved	–	–	increase in the caspase-3 activity (factor with respect to the control) (caspase-3): increase; pathway relaying the induced apoptosis (caspase-9 [5]): intrinsic pathway; PARP cleavage (fragment at 85 kDa) (K562 cells [8]): appearance of the characteristic cleavage fragment at 85 kDa; PARP cleavage (fragment at 85 kDa) (ImaR cells [9]): appearance of the characteristic cleavage fragment at 85 kDa
CCOC(=O)c1nnn(C2OC(COC(C)=O)C(OC(C)=O)C(OC(C)=O)C2OC(C)=O)c1I [Compound 191, 1′-(4-ethoxycarbonyl-5-iodo-[1,2,3]-triazol-1-yl)-2′,3′,4′,6′-tetra-O-acetyl-β-D-glucopyranose]	–	–	–	–	–	–	–	< 10	~10	particularly effective	particularly effective	< 10	~10	–	–	cleaved	autophagy alone	cleaved	increase in the expression	increase in the expression	increase in the cathepsin-B activity (factor) (cathepsin-B [10]): around 2; increase in the cathepsin-B activity (factor) (cathepsin-B [11]): around 2
CCOC(=O)c1nnn([C@@H]2O[C@H](COC(C)=O)[C@@H](OC(C)=O)[C@H]2OC(C)=O)c1-c1cccs1 [Compound 82, 1′-(4-ethoxycarbonyl-5-(2-thienyl)-[1,2,3]-triazol-1-yl)-2′,3′,5′-tri-O-acetyl-β-D-ribofuranose]	–	–	–	–	–	–	total reduction	< 10	~2.5	particularly effective	particularly effective	< 10	~2.5	increase	increase	cleaved	autophagy alone	cleaved	increase in the expression	increase in the expression	phosphorylation of 4E-BP1 (mTOR pathway [12]): total reduction; increase in the cathepsin-B activity (factor) (cathepsin-B [10]): around 2; increase in the cathepsin-B activity (factor) (cathepsin-B [11]): around 2
CCOC(=O)c1nnn([C@@H]2O[C@H](COC(C)=O)[C@@H](OC(C)=O)[C@H]2OC(C)=O)c1Cl [Compound 15, 1′-(4-ethoxycarbonyl-5-chloro-[1,2,3]-triazol-1-yl)-2′,3′,5′-tri-O-acetyl-β-D-ribofuranose]	reduction	very pronounced accumulation	reduction	very pronounced accumulation	activation	activation	–	< 10	~10	particularly effective	particularly effective	< 10	~10	increase	increase	cleaved	combination of the two types of mechanisms	cleaved	increase in the expression	increase in the expression	pathway relaying the induced apoptosis (caspase-9 [5]): intrinsic pathway; PARP cleavage (fragment at 85 kDa) (K562 cells [8]): appearance of the characteristic cleavage fragment at 85 kDa; PARP cleavage (fragment at 85 kDa) (ImaR cells [9]): appearance of the characteristic cleavage fragment at 85 kDa
